Measurements published in PMC9734143, “An efficient human stem cells derived cardiotoxicity testing platform for testing oncotherapeutic analogues of quercetin and cinnamic acid” (Scientific Reports, 2022).
Like-named read-outs stand apart in the source and are kept apart here.

What was measured:
[1] = system: cardiac markers (NKX2.5, GATA4, Troponin I, Troponin T, MHCα) in WJCM; assay: qRT-PCR gene expression of cardiac-specific markers in WJCM
Experimental: Differentiation of WJMSCs was done using a proprietary combination of DNMT and HDAC inhibitors in KO-DMEM/F-12 containing 10% FBS for 48 h. Induction media was replaced with culture media i.e. KO-DMEM/F-12 with 1X GlutaMAX and, 10% FBS after 48 h for 7 days[23].
WJMSC-derived cardiomyocytes (WJCM) and H9C2 were treated with NMJ and QMJ analogues for 24 h. […] To illustrate the toxicity specific to cardiac cells and not a general cytotoxicity, WJMSCs were treated with positive cardiotoxic drugs.
Total ribonucleic acid (RNA) was isolated using RNAiso Plus (TaKaRa, Shiga, Japan) followed by cDNA conversion using PrimeScript™ 1st strand cDNA synthesis kit (TaKaRa, Shiga, Japan). Quantitative reverse transcriptase-polymerase chain reaction (qRT-PCR) was performed by using TB Green™ Premix Ex Taq™ II (Tli RNase H Plus; TaKaRa, Shiga, Japan) for cardiac markers in a QuantStudio™ 5 real-time PCR Systems (Applied Biosystems, USA). All the primers were purchased from Sigma Aldrich, Bangalore, India (Table 1). The relative gene expression was calculated using 2^-∆∆CT and GAPDH, a housekeeping gene was used as endogenous control[52],[53].

WJMSCs [2] = assay: MTT cell viability assay in undifferentiated WJMSCs; format: cell-based, human; details: 24 h; Dox 1 µM, 5FU 1 µM, Cis 5 µM; undifferentiated cells
Experimental: Similarly, the toxicity of these compounds in terms of the viability of cells was estimated by using the MTT assay and cell counting kit-8 (CCK-8) assay. For MTT assay, after 24 h of treatments, MTT (5 mg/ml of PBS; HiMedia, India) was added, and cells were incubated for 2 h at 37 °C. The formazan crystals that were formed after the incubation were dissolved using dimethyl sulfoxide (DMSO). For the CCK-8 assay, 10 μL of CCK-8 solution (Boster Biological Technology, Pleasanton, CA, USA) was added to each well and incubated for 2 h at 37 °C.

WJMSCs [3] = assay: CCK-8 assay in undifferentiated WJMSCs; format: cell-based, human; details: 24 h; Dox 1 µM, 5FU 1 µM, Cis 5 µM; undifferentiated cells
Experimental: Mesenchymal stem cells from Wharton's jelly (WJMSCs) were isolated from the Wharton's jelly of the human umbilical cord via enzymatic digestion as described previously with slight modifications. Experiments were performed after obtaining clearance from Institutional Ethical Committee ([…] Hospital, Bangalore, India. Informed consent was obtained from the donor and all the experiments were performed in accordance with relevant guidelines and regulations. Rat cardiomyoblast cell line, H9C2 was obtained from National Centre for Cell Science (NCCS), Pune, India. WJMSCs were maintained in KnockoutTM Dulbecco's Modified Eagle Medium/Nutrient Mixture F-12 (KO-DMEM/F-12; Gibco, MA, USA) with 10% Fetal bovine serum (FBS, Gibco, MA, USA), 1X GlutaMAX (Gibco, MA, USA), and 1X Antibiotic Antimycotic Solution (Gibco, MA, USA). H9C2 cells were cultured in Dulbecco's Modified Eagle Medium-High Glucose (DMEM-HG; Gibco, MA, USA) supplemented with 10% FBS and 1X Antibiotic-Antimycotic solution at 37 °C in 5% CO2 incubator. […] Similarly, the toxicity of these compounds in terms of the viability of cells was estimated by using the MTT assay and cell counting kit-8 (CCK-8) assay. For MTT assay, after 24 h of treatments, MTT (5 mg/ml of PBS; HiMedia, India) was added, and cells were incubated for 2 h at 37 °C. The formazan crystals that were formed after the incubation were dissolved using dimethyl sulfoxide (DMSO). For the CCK-8 assay, 10 μL of CCK-8 solution (Boster Biological Technology, Pleasanton, CA, USA) was added to each well and incubated for 2 h at 37 °C. The absorbance for MTT and CCK-8 assay was measured at 570 nm and 450 nm respectively using the EnSightTM Multimode plate reader (Perkin Elmer, MA, USA)[49],[50].

WJMSCs [4] = assay: LDH release assay in undifferentiated WJMSCs; format: cell-based, human; details: 24 h; Dox 1 µM, 5FU 1 µM, Cis 5 µM; undifferentiated cells
Experimental: Mesenchymal stem cells from Wharton's jelly (WJMSCs) were isolated from the Wharton's jelly of the human umbilical cord via enzymatic digestion as described previously with slight modifications. Experiments were performed after obtaining clearance from Institutional Ethical Committee ([…] Hospital, Bangalore, India. Informed consent was obtained from the donor and all the experiments were performed in accordance with relevant guidelines and regulations. Rat cardiomyoblast cell line, H9C2 was obtained from National Centre for Cell Science (NCCS), Pune, India. WJMSCs were maintained in KnockoutTM Dulbecco's Modified Eagle Medium/Nutrient Mixture F-12 (KO-DMEM/F-12; Gibco, MA, USA) with 10% Fetal bovine serum (FBS, Gibco, MA, USA), 1X GlutaMAX (Gibco, MA, USA), and 1X Antibiotic Antimycotic Solution (Gibco, MA, USA). H9C2 cells were cultured in Dulbecco's Modified Eagle Medium-High Glucose (DMEM-HG; Gibco, MA, USA) supplemented with 10% FBS and 1X Antibiotic-Antimycotic solution at 37 °C in 5% CO2 incubator. […] The experiment was performed as per the manufacturer's protocol. Absorbance was taken at 490 nm and 680 nm (background signal) using multimode plate reader. LDH activity was calculated by subtracting absorbance taken at 680 nm from 490 nm.

H9C2 cells [5] = assay: MTT cell viability assay in H9C2 cells; format: cell-based, rat; details: 24 h; analogues at Vero IC50 concentration; Dox 1 µM
Experimental: (§1) Similarly, the toxicity of these compounds in terms of the viability of cells was estimated by using the MTT assay and cell counting kit-8 (CCK-8) assay. For MTT assay, after 24 h of treatments, MTT (5 mg/ml of PBS; HiMedia, India) was added, and cells were incubated for 2 h at 37 °C. The formazan crystals that were formed after the incubation were dissolved using dimethyl sulfoxide (DMSO). For the CCK-8 assay, 10 μL of CCK-8 solution (Boster Biological Technology, Pleasanton, CA, USA) was added to each well and incubated for 2 h at 37 °C. The absorbance for MTT and CCK-8 assay was measured at 570 nm and 450 nm respectively using the EnSight™ Multimode plate reader (Perkin Elmer, MA, USA)[49],[50].

H9C2 cells [6] = assay: LDH release assay in H9C2 cells; format: cell-based, rat; details: 24 h; analogues at Vero IC50 concentration
Experimental: (§2) The experiment was performed as per the manufacturer’s protocol. Absorbance was taken at 490 nm and 680 nm (background signal) using multimode plate reader. LDH activity was calculated by subtracting absorbance taken at 680 nm from 490 nm.

[7] = system: WJMSC-derived cardiomyocytes (WJCM); assay: LDH release assay in WJCM; format: cell-based, human; details: 24 h; analogues at Vero IC50 concentration
Experimental: as §2

[8] = system: cardiomyocytes (WJCM and H9C2 cells); assay: Cardiotoxicity across parameters as summarised in the discussion (WJCM and H9C2 cells); format: cell-based, human and rat; details: for overall cardiotoxicity across the parameters analyzed: analogues at Vero IC50 concentration, 24 h
Text: We investigated the effects of 3-hydroxyflavone (QMJ-2, QMJ-5, and QMJ-6) and cinnamyl sulfonamide-hydroxamate (NMJ-1, NMJ-2, NMJ-3) in WJCM and H9C2 cells using the concentrations reported for non-cancerous Vero cells. The prerequisite for any synthesized drug molecules is that they should be nontoxic to cardiac cells.

[9] = system: Vero, a non-cancerous cell line; design: method as in PMID 25824412, PMID 30687400; details: read-out: IC50 in Vero cells; cited from earlier work
colorectal cancer = system: colorectal cancer; design: method as in PMID 25824412, PMID 30687400; details: previously reported studies; cited from earlier work
[10] = system: WJMSC-derived cardiomyocytes (WJCM); assay: MTT and CCK-8 cell viability assays in WJCM; format: cell-based, human; details: 24 h; analogues at Vero IC50 concentration; Dox 1 µM
Experimental: as §1

[11] = qRT-PCR, analogues at Vero IC50 concentration, Dox, 5FU, Cis as positive cardiotoxic drugs
[12] = qRT-PCR, analogues at Vero IC50 concentration
[13] = discussion summary, cell model not specified

Structure (SMILES)	cardiac marker gene expression in WJCM (all markers together) [1, 11]	MTT cell viability in WJMSCs (WJMSCs [2])	CCK-8 in WJMSCs (WJMSCs [3])	LDH release in WJMSCs (WJMSCs [4])	decrease in viability of H9C2 cells (MTT) (H9C2 cells [5])	LDH release in H9C2 cells (H9C2 cells [6])	LDH release in WJCM [7]	cardiac marker gene expression in WJCM (all markers together) [1]	GATA4 gene expression in WJCM [1, 12]	MHCα gene expression in WJCM [1, 12]	Troponin I gene expression in WJCM [1, 12]	overall cardiotoxicity across the parameters analyzed [8]	ROS level in treated cardiomyocytes [8, 13]	active mitochondria status in treated cardiomyocytes [8, 13]	cytotoxic effect against cardiomyocytes by MTT, CCK-8 and LDH assay [8, 13]	intracellular calcium level in treated cardiomyocytes [8, 13]	IC50 [9] [µM]	concentration found effective against cancer (colorectal cancer) [µM]	further results
O=c1[nH]cc(F)c(=O)[nH]1 [5FU, 5-fluorouracil]	reduced all the cardiac markers expression drastically	no significant difference	no significant difference	no significant difference															
Cc1ccc(-c2oc3ccccc3c(=O)c2O)cc1 [QMJ-2, 3-hydroxy-2-(4-methylphenyl)-4H-1-benzopyran-4-one]					10–20%	increase in LDH	increase in LDH	drastic reduction	decreased the expression	decreased the expression	decreased the expression	cardiotoxic	increased ROS levels	loss of mitochondria	induced toxicity	increased the level	140	68	Troponin T gene expression in WJCM, result in words [1, 12]: milder increase
O=C(/C=C/c1ccc(S(=O)(=O)NCc2cccs2)cc1)NO [NMJ-1]	drastic reduction				10–20%	increase in LDH	increase in LDH		decreased the expression	decreased the expression	decreased the expression	cardiotoxic	increased ROS levels	loss of mitochondria	induced toxicity	increased the level	9.7	5.07	
Cc1ccc(-c2oc3cc(C)ccc3c(=O)c2O)cc1 [QMJ-5, 3-Hydroxy-7-methyl-2-(4-methylphenyl)-4H-1-benzopyran-4-one]	drastic reduction				10–20%	increase in LDH	increase in LDH		decreased the expression	decreased the expression	decreased the expression	cardiotoxic	increased ROS levels	loss of mitochondria	induced toxicity	increased the level	55.6	27.4	
N.N.[Cl][Pt][Cl] [Cis, cisplatin]			no significant difference	no significant difference				reduced all the cardiac markers expression drastically											
COc1cccc2c1C(=O)c1c(O)c3c(c(O)c1C2=O)C[C@@](O)(C(=O)CO)C[C@@H]3O[C@H]1C[C@H](N)[C@H](O)[C@H](C)O1 [Dox, doxorubicin, reference compound]	reduced all the cardiac markers expression drastically	no significant difference	no significant difference	no significant difference	~25%								increased ROS level	affected cardiomyocyte mitochondrial activity		alternation in calcium			toxicity / cell viability in WJCM (MTT, CCK-8), result in words [10]: reduced cell viability drastically; NO production / NO levels [8, 13]: reduced NO production
